Reference: patent US12030878B2 (BRISTOL-MYERS SQUIBB COMPANY, priority 2017, dated 2024)

Key:
Assay type in all cases: cell-based
human TLR8 = target: T1, human TLR8 (Homo sapiens, UniProt Q9NR97); experiment: TLR8 inhibition reporter assay (HEK-Blue SEAP); conditions: HEK-Blue cells overexpressing human TLR8, stimulated with R848 15.9 μM, 22 hour incubation
T1 construct: host or cells: HEK-Blue cells
T1 sequence (Q9NR97 27-1041): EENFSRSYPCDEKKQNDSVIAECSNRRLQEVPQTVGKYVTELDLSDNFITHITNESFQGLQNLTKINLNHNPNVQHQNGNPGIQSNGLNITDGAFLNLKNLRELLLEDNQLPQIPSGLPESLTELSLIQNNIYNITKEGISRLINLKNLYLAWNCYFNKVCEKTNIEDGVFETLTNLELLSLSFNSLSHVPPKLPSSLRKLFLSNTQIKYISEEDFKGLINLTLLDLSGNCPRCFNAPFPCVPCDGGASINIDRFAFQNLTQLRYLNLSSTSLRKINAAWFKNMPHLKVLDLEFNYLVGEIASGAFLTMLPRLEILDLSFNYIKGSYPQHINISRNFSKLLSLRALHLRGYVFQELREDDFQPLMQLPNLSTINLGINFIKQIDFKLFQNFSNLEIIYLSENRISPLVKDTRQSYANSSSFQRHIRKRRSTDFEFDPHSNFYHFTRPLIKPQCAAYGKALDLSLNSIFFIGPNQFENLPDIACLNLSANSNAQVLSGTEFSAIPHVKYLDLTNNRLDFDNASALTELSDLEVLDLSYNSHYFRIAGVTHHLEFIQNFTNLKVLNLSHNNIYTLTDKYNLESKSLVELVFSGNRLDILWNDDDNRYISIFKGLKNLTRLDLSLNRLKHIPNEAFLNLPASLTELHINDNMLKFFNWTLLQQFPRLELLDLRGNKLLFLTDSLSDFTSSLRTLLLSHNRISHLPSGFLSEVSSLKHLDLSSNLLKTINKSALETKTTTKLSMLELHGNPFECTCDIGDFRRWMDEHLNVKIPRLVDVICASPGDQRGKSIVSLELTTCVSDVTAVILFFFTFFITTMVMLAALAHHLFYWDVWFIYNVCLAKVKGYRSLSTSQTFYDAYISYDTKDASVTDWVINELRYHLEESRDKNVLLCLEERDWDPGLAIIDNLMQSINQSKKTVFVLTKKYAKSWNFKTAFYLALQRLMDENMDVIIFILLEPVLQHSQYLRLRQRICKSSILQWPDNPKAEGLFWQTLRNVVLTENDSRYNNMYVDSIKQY
Outline: (§1)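 Stimulation followed a 30 min room-temperature compound exposure (final 0.05 nM-50 μM): TLR7 cells with 7.5 μM gardiquimod, TLR8 with 15.9 μM R848, TLR9 with 5 nM ODN2006. After 22 h at 37 °C, secreted alkaline phosphatase was detected colorimetrically and inhibition calculated against DMSO and known-inhibitor controls.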

human TLR9 = target: T2, human TLR9 (Homo sapiens, UniProt Q9NR96); experiment: TLR9 inhibition reporter assay (HEK-Blue SEAP); conditions: HEK-Blue cells overexpressing human TLR9, stimulated with ODN2006 5 nM, 22 hour incubation
T2 construct: host or cells: HEK-Blue cells
T2 sequence (Q9NR96 26-1032): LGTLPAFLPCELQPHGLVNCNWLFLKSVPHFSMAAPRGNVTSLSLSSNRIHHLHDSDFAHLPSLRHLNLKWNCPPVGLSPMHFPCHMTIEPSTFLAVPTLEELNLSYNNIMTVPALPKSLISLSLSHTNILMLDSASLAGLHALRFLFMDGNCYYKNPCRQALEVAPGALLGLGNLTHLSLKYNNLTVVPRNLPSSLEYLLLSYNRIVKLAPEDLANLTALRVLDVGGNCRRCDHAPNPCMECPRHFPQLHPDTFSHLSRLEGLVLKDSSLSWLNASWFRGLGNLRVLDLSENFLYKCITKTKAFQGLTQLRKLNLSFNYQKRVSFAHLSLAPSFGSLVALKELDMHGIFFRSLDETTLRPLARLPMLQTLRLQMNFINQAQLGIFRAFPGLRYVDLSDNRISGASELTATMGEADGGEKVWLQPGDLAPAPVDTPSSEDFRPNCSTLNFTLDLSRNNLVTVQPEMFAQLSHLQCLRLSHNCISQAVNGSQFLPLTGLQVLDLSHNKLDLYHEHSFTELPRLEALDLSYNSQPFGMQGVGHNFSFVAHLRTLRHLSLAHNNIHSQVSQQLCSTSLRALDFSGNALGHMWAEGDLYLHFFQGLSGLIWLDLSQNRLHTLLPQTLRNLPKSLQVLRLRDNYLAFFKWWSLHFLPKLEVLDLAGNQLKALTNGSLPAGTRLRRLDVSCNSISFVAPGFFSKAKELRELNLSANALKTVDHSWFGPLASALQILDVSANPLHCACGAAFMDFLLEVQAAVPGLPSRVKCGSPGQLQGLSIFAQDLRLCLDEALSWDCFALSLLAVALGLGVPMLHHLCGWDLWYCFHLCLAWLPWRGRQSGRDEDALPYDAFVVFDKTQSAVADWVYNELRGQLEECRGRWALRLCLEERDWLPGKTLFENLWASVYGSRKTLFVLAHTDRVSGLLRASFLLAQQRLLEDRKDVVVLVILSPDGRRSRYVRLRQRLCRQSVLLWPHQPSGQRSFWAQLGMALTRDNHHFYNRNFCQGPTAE
Outline: as §1

human TLR7 = target: T3, human TLR7 (Homo sapiens, UniProt Q9NYK1); experiment: TLR7 inhibition reporter assay (HEK-Blue SEAP); conditions: HEK-Blue cells overexpressing human TLR7, stimulated with gardiquimod 7.5 μM, 22 hour incubation
T3 construct: host or cells: HEK-Blue cells
T3 sequence (Q9NYK1 27-1049): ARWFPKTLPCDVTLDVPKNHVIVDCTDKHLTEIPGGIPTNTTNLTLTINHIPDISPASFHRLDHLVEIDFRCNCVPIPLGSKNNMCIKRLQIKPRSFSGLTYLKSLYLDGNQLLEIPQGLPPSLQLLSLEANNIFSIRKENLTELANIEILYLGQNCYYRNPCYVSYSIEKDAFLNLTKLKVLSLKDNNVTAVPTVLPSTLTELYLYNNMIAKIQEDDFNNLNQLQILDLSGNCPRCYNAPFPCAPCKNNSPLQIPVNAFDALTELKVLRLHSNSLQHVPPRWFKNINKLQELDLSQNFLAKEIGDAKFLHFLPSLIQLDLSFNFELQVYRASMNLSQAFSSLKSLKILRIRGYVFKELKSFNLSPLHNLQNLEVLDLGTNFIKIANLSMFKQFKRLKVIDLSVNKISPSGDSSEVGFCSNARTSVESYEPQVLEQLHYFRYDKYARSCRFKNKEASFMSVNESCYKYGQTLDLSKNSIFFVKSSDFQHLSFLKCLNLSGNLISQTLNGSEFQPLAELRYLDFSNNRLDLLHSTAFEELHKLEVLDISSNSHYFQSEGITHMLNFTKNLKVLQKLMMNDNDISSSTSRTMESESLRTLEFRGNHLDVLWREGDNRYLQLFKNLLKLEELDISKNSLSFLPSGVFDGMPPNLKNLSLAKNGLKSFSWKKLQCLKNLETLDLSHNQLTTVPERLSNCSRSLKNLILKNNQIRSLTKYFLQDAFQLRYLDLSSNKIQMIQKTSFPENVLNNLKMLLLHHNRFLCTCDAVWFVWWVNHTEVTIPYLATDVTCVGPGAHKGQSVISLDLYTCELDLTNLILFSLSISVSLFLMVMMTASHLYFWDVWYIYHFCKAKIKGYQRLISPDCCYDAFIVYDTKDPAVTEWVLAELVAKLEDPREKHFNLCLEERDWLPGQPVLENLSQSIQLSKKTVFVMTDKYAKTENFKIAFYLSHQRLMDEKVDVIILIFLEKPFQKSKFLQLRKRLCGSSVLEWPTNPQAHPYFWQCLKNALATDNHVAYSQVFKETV
Outline: as §1

SMILES | IC50 (human TLR8) | IC50 (human TLR9) | IC50 (human TLR7)
Cc1cc(-c2[nH]c3ccc(OCC(=O)N4CCC(CN)CC4)cc3c2C(C)C)ccn1 [Example 147, 1-(4-(aminomethyl)piperidin-1-yl)-2-((3-isopropyl-2-(2-methylpyridin-4-yl)-1H-indol-5-yl)oxy)ethan-1-one] | 474 nM | 1540 nM | 1200 nM
Cc1cc(-c2[nH]c3ccc(OCC(=O)NCC(C)(C)O)cc3c2C(C)C)ccn1 [Example 151, N-(2-hydroxy-2-methylpropyl)-2-((3-isopropyl-2-(2-methylpyridin-4-yl)-1H-indol-5-yl)oxy)acetamide] | 561 nM | > 50000 nM | 404 nM
COc1ccc(-c2[nH]c3ccc(OCC(=O)N[C@@H]4CCNC4)cc3c2C(C)C)cc1OC [Example 135, (R)-2-((2-(3,4-dimethoxyphenyl)-3-isopropyl-1H-indol-5-yl)oxy)-N-(pyrrolidin-3-yl)acetamide] | 24.1 nM | 1820 nM | 185 nM

Stronger by IC50 (human TLR8), values ahead:

IC50 (human TLR8) | IC50 (human TLR9) | IC50 (human TLR7) | SMILES
22.8 nM | 2530 nM | 105 nM | CCc1c(-c2ccc(OC)c(OC)c2)[nH]c2ccc(OCC3CCNCC3)cc12 [Example 162, 2-(3,4-dimethoxyphenyl)-3-ethyl-5-(piperidin-4-ylmethoxy)-1H-indole]
5.7 nM | 3440 nM | 1.2 nM | Cc1cc(-c2[nH]c3ccc(OCC4CCN(C)CC4)cc3c2C(C)C)cn2ncnc12 [Example 41, 6-(3-isopropyl-5-((1-methylpiperidin-4-yl)methoxy)-1H-indol-2-yl)-8-methyl-[1,2,4]triazolo[1,5-a]pyridine]
1.6 nM | 5550 nM | 2.4 nM | Cc1cc(-c2[nH]c3ccc(OCC4CCN(C)CC4)cc3c2C(C)C)cn(C)c1=O [Example 34, 5-(3-isopropyl-5-((1-methylpiperidin-4-yl)methoxy)-1H-indol-2-yl)-1,3-dimethylpyridin-2(1H)-one]
